ChEMBL document CHEMBL3885861, “Open TG-GATES”

Species: Rattus norvegicus
Assay: Open TG-GATES - Regimen: Single
Assay type: toxicity, organism-based, Sprague-Dawley
Design: regimen Single, gender Male, age 6 weeks
Details: in vivo, ip, 0 mg/kg, route intraperitoneal injection, dose 0 ug/Kg, dose level Control; for APTT / Bas / Eos / Fbg / Hb / Ht / Lym / MCH / MCHC / MCV / Mono / Neu / PT / Plat / RBC / Ret / WBC: tissue Blood; for KIDNEY_L / KIDNEY_R / KIDNEY_TOTAL: tissue Kidney; for LIVER: tissue Liver; for A/G / ALP / ALT / AST / BUN / CRE / Ca / Cl / DBIL / GLC / IP / K / LDH / Na / PL / RALB / TBIL / TC / TG / TP / gamma-GTP: tissue Plasma

CC(=O)N[C@H]1[C@@H](O[C@@H]2O[C@H](CC(O)[C@H]3O[C@@H](n4ccc(=O)[nH]c4=O)[C@H](O)[C@@H]3O)[C@H](O)[C@H](O)[C@H]2NC(=O)/C=C/CC(C)C)O[C@H](CO)[C@@H](N)[C@@H]1O (some centres not stated) [TUNICAMYCIN]
TERMINAL_BW (3 h): 221.9 g | APTT (3 h): 21.5 s | Bas (3 h): 0% | Eos (3 h): 0.5% | Fbg (3 h): 293.8 mg/dL | Hb (3 h): 13 g/dL | Ht (3 h): 39.6% | Lym (3 h): 77% | MCH (3 h): 21.1 pg | MCHC (3 h): 32.9% | MCV (3 h): 64.1 fL | Mono (3 h): 2.8% | Neu (3 h): 18.8% | PT (3 h): 15.8 s | Plat (3 h): 103.5 x10_4/uL | RBC (3 h): 617.8 x10_4/ul | Ret (3 h): 8.1% | WBC (3 h): 129.5 x10_2/uL | KIDNEY_L (3 h): 1 g | KIDNEY_R (3 h): 1 g | KIDNEY_TOTAL (3 h): 2 g | LIVER (3 h): 10.3 g | A/G (3 h): 1.2 | ALP (3 h): 1530.2 IU/L | ALT (3 h): 45 IU/L | AST (3 h): 75 IU/L | BUN (3 h): 14 mg/dL | CRE (3 h): 0.2 mg/dL | Ca (3 h): 10.6 mg/dL | Cl (3 h): 106.5 meq/L | DBIL (3 h): 0 mg/dL | GLC (3 h): 175.2 mg/dL | IP (3 h): 8.4 mg/dL | K (3 h): 4.4 meq/L | LDH (3 h): 176.5 IU/L | Na (3 h): 140.2 meq/L | PL (3 h): 127.5 mg/dL | RALB (3 h): 2.9 g/dL | TBIL (3 h): 0.0125 mg/dL | TC (3 h): 71.8 mg/dL | TG (3 h): 72.5 mg/dL | TP (3 h): 5.3 g/dL | gamma-GTP (3 h): 1 IU/L | TERMINAL_BW (6 h): 222.7 g | APTT (6 h): 22.4 s | Bas (6 h): 0% | Eos (6 h): 0.4% | Fbg (6 h): 306.8 mg/dL | Hb (6 h): 13 g/dL | Ht (6 h): 40.2% | Lym (6 h): 75.2% | MCH (6 h): 20.6 pg | MCHC (6 h): 32.4% | MCV (6 h): 63.4 fL | Mono (6 h): 2% | Neu (6 h): 22% | PT (6 h): 15.4 s | Plat (6 h): 114.6 x10_4/uL | RBC (6 h): 634.2 x10_4/ul | Ret (6 h): 7.9% | WBC (6 h): 100.9 x10_2/uL | KIDNEY_L (6 h): 1 g | KIDNEY_R (6 h): 1 g | KIDNEY_TOTAL (6 h): 2 g | LIVER (6 h): 10.1 g | A/G (6 h): 1.2 | ALP (6 h): 1339.6 IU/L | ALT (6 h): 39.6 IU/L | AST (6 h): 68.6 IU/L | BUN (6 h): 11 mg/dL | CRE (6 h): 0.1 mg/dL | Ca (6 h): 10.9 mg/dL | Cl (6 h): 104.8 meq/L | DBIL (6 h): 0 mg/dL | GLC (6 h): 186.8 mg/dL | IP (6 h): 9.2 mg/dL | K (6 h): 4.2 meq/L | LDH (6 h): 142.8 IU/L | Na (6 h): 142.4 meq/L | PL (6 h): 133 mg/dL | RALB (6 h): 2.9 g/dL | TBIL (6 h): 0.018 mg/dL | TC (6 h): 74.2 mg/dL | TG (6 h): 63.2 mg/dL | TP (6 h): 5.4 g/dL | gamma-GTP (6 h): 1.2 IU/L | TERMINAL_BW (9 h): 216.2 g | APTT (9 h): 22.6 s | Bas (9 h): 0% | Eos (9 h): 0.6% | Fbg (9 h): 299.2 mg/dL | Hb (9 h): 13.1 g/dL | Ht (9 h): 40.6% | Lym (9 h): 81.2% | MCH (9 h): 20.3 pg | MCHC (9 h): 32.2% | MCV (9 h): 63 fL | Mono (9 h): 1.8% | Neu (9 h): 15.8% | PT (9 h): 15.7 s | Plat (9 h): 118.2 x10_4/uL | RBC (9 h): 643.6 x10_4/ul | Ret (9 h): 7.7% | WBC (9 h): 98.9 x10_2/uL | KIDNEY_L (9 h): 1 g | KIDNEY_R (9 h): 1 g | KIDNEY_TOTAL (9 h): 1.9 g | LIVER (9 h): 8.6 g | A/G (9 h): 1.2 | ALP (9 h): 1451.4 IU/L | ALT (9 h): 37.6 IU/L | AST (9 h): 71 IU/L | BUN (9 h): 11.2 mg/dL | CRE (9 h): 0.1 mg/dL | Ca (9 h): 10.3 mg/dL | Cl (9 h): 104.8 meq/L | DBIL (9 h): 0 mg/dL | GLC (9 h): 195.4 mg/dL | IP (9 h): 9.6 mg/dL | K (9 h): 4.2 meq/L | LDH (9 h): 158.4 IU/L | Na (9 h): 141.8 meq/L | PL (9 h): 128 mg/dL | RALB (9 h): 2.8 g/dL | TBIL (9 h): 0.024 mg/dL | TC (9 h): 74.2 mg/dL | TG (9 h): 54 mg/dL | TP (9 h): 5.2 g/dL | gamma-GTP (9 h): 1 IU/L | TERMINAL_BW (24 h): 234.3 g | APTT (24 h): 21.6 s | Bas (24 h): 0% | Eos (24 h): 1% | Fbg (24 h): 295.2 mg/dL | Hb (24 h): 12.7 g/dL | Ht (24 h): 39.1% | Lym (24 h): 78.6% | MCH (24 h): 20.2 pg | MCHC (24 h): 32.4% | MCV (24 h): 62.4 fL | Mono (24 h): 3.6% | Neu (24 h): 16.2% | PT (24 h): 16.2 s | Plat (24 h): 119.3 x10_4/uL | RBC (24 h): 626.8 x10_4/ul | Ret (24 h): 7.3% | WBC (24 h): 88.7 x10_2/uL | KIDNEY_L (24 h): 1.1 g | KIDNEY_R (24 h): 1.1 g | KIDNEY_TOTAL (24 h): 2.1 g | LIVER (24 h): 10.8 g | A/G (24 h): 1.2 | ALP (24 h): 1584.8 IU/L | ALT (24 h): 42.2 IU/L | AST (24 h): 71.2 IU/L | BUN (24 h): 16.6 mg/dL | CRE (24 h): 0.1 mg/dL | Ca (24 h): 10.5 mg/dL | Cl (24 h): 105.2 meq/L | DBIL (24 h): 0 mg/dL | GLC (24 h): 184.4 mg/dL | IP (24 h): 6.8 mg/dL | K (24 h): 4.6 meq/L | LDH (24 h): 146.4 IU/L | Na (24 h): 141.2 meq/L | PL (24 h): 136 mg/dL | RALB (24 h): 3.1 g/dL | TBIL (24 h): 0.008 mg/dL | TC (24 h): 73.6 mg/dL | TG (24 h): 70.8 mg/dL | TP (24 h): 5.5 g/dL | gamma-GTP (24 h): 1.8 IU/L
